Measured values: ChEMBL document CHEMBL6120945, “Peptidomimetic Analogues Act as Effective Inhibitors against SARS-CoV-2 by Blocking the Function of Cathepsin L” (J Med Chem, 2024)
The source made the active and inactive calls. The rule behind the calls is not given here. Where a SMILES comes first, the peptide text is derived from it. The star is where a group is joined. Cbz = O=C(OCc1ccccc1)*; Hexanoyl = CCCCCC(=O)*; PhAc = O=C(Cc1ccccc1)*; Boc = CC(C)(C)OC(=O)*; Butyryl = CCCC(=O)*

Experiments:
[1] = molecular target: Transmembrane protease serine 2 (Homo sapiens) (UniProt O15393); test: Inhibition of human recombinant TMPRSS2 using Boc-QAR-AMC as substrate at 10 uM preincubated for 30 mins followed by substrate addition and measured after 1.5 hrs by fluorescence based analysis relative to control; settings: time 2.0 hrs
[2] = test system: Severe acute respiratory syndrome coronavirus 2; test: Inhibition of recombinant SARS-Cov-2 Cathepsin L-like protease by LC-MS/MS analysis
[3] = molecular target: T1, Cathepsin L2 (Homo sapiens) (UniProt O60911); test: Inhibition of Cathepsin V (unknown origin) at 10 uM relative to control
T1 sequence (whole entry): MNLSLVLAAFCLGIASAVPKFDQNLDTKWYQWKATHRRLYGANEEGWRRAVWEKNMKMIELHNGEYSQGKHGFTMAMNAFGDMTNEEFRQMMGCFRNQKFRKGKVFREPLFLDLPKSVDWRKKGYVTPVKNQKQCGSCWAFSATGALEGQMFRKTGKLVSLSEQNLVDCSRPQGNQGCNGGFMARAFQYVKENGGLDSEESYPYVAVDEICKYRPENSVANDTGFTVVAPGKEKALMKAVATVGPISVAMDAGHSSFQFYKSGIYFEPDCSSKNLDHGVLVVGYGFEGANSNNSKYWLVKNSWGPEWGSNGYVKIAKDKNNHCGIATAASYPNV

[4] = molecular target: Transmembrane protease serine 2 (Homo sapiens) (UniProt O15393); test: Inhibition of human recombinant TMPRSS2 using Boc-QAR-AMC as substrate at 10 uM preincubated for 30 mins followed by substrate addition and measured after 1.5 hrs by fluorescence based analysis; settings: time 2.0 hrs
[5] = molecular target: Trypsin (Homo sapiens) (UniProt P07477+P07478+P35030); test: Inhibition of human trypsin at 10 uM relative to control; format: protein assay
[6] = molecular target: Replicase polyprotein 1ab (Severe acute respiratory syndrome coronavirus 2, UniProt P0DTD1); test: Inhibition of recombinant SARS-CoV-2 3CLpro using MCA-AVLQSGFR-Lys(Dnp)-Lys-NH2 as substrate incubated for 1.5 hrs by fluorescence based analysis
[7] = test system: SARS-CoV-2; test: microbe, parasite or virus in culture; settings: Severe acute respiratory syndrome coronavirus 2, WIV04, Vero C1008
Description: Antiviral activity against SARS-CoV-2 WIV04 infected in African green monkey Vero E6 pre-infected with cells for 1 hr followed by compound treatment and measured after 24 hrs by qRT-PCR analysis

[8] = molecular target: Replicase polyprotein 1ab (Severe acute respiratory syndrome coronavirus 2) (UniProt P0DTD1); test: Inhibition of recombinant SARS-CoV-2 3CLpro using MCA-AVLQSGFR-Lys(Dnp)-Lys-NH2 as substrate at 10 uM incubated for 1.5 hrs by fluorescence based analysis
[9] = test system: SARS-CoV-2; format: functional, organism-based; settings: Severe acute respiratory syndrome coronavirus 2; Vero E6; time 12.0 hrs
[10] = molecular target: Chymotrypsin (Homo sapiens) (UniProt Q99895+P17538+P40313+Q6GPI1); test: Inhibition of human Chymotrypsin at 10 uM relative to control; format: protein assay
[11] = Inhibition of human recombinant Cathepsin L-like protease using Z-FR-AMC as substrate preincubated for 30 mins followed by substrate addition and measured after 1.5 hrs by fluorescence based analysis
[12] = molecular target: T2, Cathepsin B (Homo sapiens, UniProt P07858); test: Inhibition of Cathepsin B (unknown origin) at 10 uM relative to control
[13] = molecular target: Replicase polyprotein 1ab (Severe acute respiratory syndrome coronavirus 2) (UniProt P0DTD1); test: Inhibition of SARS-CoV2 PLpro using Z-RLRGG-AMC as substrate at 10 uM preincubated for 30 mins followed by substrate addition and measured after 1.5 hrs by fluorescence based analysis; settings: time 2.0 hrs
[14] = species on record: Homo sapiens; test: Inhibition of human recombinant Cathepsin L-like protease using Z-FR-AMC as substrate at 10 uM preincubated for 30 mins followed by substrate addition and measured after 1.5 hrs by fluorescence based analysis; settings: time 2.0 hrs
[15] = Binding affinity to human recombinant Cathepsin L-like protease using Z-FR-AMC as substrate assessed as inhibition constant preincubated for 30 mins followed by substrate addition and measured after 1 hr by Morrison equation based analysis
[16] = molecular target: T2, Cathepsin B; test: Binding affinity to Cathepsin B (unknown origin) assessed as inhibition constant by Morrison equation based analysis
[17] = test system: Vero E6; test: Inhibition of Procathepsin L in african green monkey Vero E6 cells by LC-MS/MS analysis; format: cell-based; settings: Chlorocebus aethiops
[18] = Cytotoxicity against african green monkey Vero E6 cells assessed as cell viability incubated for 48 hrs by CCK-8 assay; format: toxicity, cell-based, Vero C1008; settings: chlorocebus sabaeus
[19] = molecular target: T3, Cathepsin L2 (Homo sapiens, UniProt O60911); test: Binding affinity to Cathepsin V (unknown origin) assessed as inhibition constant by Morrison equation based analysis
T3 sequence (O60911 whole entry): T1 sequence (whole entry)

[20] = test system: Vero E6; test: Binding affinity to Cathepsin L-like protease in african green monkey Vero E6 cells incubated for 2 hrs by mass spectrometric analysis; format: cell-based; settings: Chlorocebus aethiops
[21] = test system: Vero E6; test: Binding affinity to Cathepsin L-like protease in african green monkey Vero E6 cells incubated for 2 hrs by Western blot analysis; format: cell-based; settings: Chlorocebus aethiops
[22] = Inhibition of recombinant Cathepsin L-like protease in african green monkey Vero E6 cells incubated for 2 hrs by pull down assay; format: cell-based, Chlorocebus aethiops
[23] = Inhibition of human recombinant Cathepsin L-like protease using Z-FR-AMC as substrate at 10 uM preincubated for 30 mins followed by substrate addition and measured after 1.5 hrs by […]
[24] = species on record: Homo sapiens; test: Inhibition of human recombinant Cathepsin L-like protease using Z-FR-AMC as substrate at 1 uM preincubated for 30 mins followed by substrate addition and measured after 1.5 hrs by fluorescence based analysis; settings: time 2.0 hrs

Transmembrane protease serine 2 (Homo sapiens), sequence (O15393 1-255 limits assumed): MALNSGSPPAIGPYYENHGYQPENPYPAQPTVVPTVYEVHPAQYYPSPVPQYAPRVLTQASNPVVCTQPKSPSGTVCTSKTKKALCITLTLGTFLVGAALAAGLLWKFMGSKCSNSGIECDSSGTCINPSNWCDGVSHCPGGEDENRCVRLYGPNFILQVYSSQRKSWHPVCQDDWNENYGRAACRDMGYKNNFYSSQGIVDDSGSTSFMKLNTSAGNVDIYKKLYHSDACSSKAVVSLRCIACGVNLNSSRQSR
Transmembrane protease serine 2 (Homo sapiens), sequence (O15393 256-492 limits assumed): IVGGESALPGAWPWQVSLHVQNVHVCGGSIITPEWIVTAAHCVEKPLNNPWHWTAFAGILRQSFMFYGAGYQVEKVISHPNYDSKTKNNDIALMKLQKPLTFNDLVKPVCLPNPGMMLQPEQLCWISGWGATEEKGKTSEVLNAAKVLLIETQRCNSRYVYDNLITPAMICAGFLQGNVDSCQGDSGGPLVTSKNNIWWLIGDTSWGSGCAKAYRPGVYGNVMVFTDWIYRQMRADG

Structure (SMILES)	IC50 [6]	IC50 [11]	also measured
CC(C)C[C@H](NC(=O)/C=C/c1ccccc1)C(=O)N[C@H](C=O)Cc1ccccc1	> 10 µM	22.6 nM	inhibition [1]: 100%; inhibition [2]: Active; inhibition [3]: inactive; inhibition [4]: inactive; inhibition [5]: inactive; EC50 [7]: 310 nM; inhibition [8]: inactive; Activity [9]: Active; inhibition [10]: inactive; inhibition [12]: inactive; inhibition [13]: inactive; inhibition [14]: Active; Ki [15]: 1.31 nM; Ki [16]: 40.1 nM; inhibition [17]: Active; CC50 at 48 h [18]: > 100 µM; Ki [19]: 2.25 nM
C#CCCCCOc1ccc(/C=C/C(=O)N[C@@H](CC(C)C)C(=O)N[C@@H](Cc2ccccc2)C(=O)OC)cc1	> 10 µM	–	EC50 [7]: > 100000 nM; CC50 at 48 h [18]: > 100 µM
C#CCCCCOc1ccc(/C=C/C(=O)N[C@@H](CC(C)C)C(=O)N[C@H](C=O)Cc2ccccc2)cc1	–	40.8 nM	Activity [20]: Active; Activity [21]: Active; EC50 [22]: 6.21 µM
O=C(N[C@@H](Cc1cccc(F)c1)C(=O)N[C@@H](Cc1ccccc1)C(=O)CCl)c1ccc2[nH]ccc2c1	–	–	EC50 [7]: 1750 nM; IC50 [23]: 0.72 nM
COC(=O)[C@H](Cc1ccccc1)NC(=O)[C@H](CC(C)C)NC(=O)/C=C/c1ccccc1	> 10 µM	–	EC50 [7]: > 100000 nM; CC50 at 48 h [18]: > 100 µM
CC(C)C[C@H](NC(=O)/C=C/c1ccccc1)C(=O)N[C@H](C=O)C[C@@H]1CCCNC1=O	–	–	EC50 [7]: 1510 nM; CC50 at 48 h [18]: > 100 µM
CC(C)C[C@@H](NC(=O)/C=C/c1ccccc1)C(=O)N[C@H](C=O)Cc1ccccc1	> 10 µM	> 1000 nM	inhibition [24]: inactive
CC(C)C[C@H](NC(=O)/C=C/c1ccccc1)C(=O)N[C@H](C=O)C[C@@H]1CCNC1=O	–	–	CC50 at 48 h [18]: > 100 µM
O=C(N[C@@H](Cc1ccccc1)C(=O)N[C@@H](Cc1ccccc1)C(=O)CCl)c1cccc2ccccc12	–	–	EC50 [7]: 400 nM; IC50 [23]: 0.41 nM
O=C(N[C@@H](Cc1ccc(F)cc1)C(=O)N[C@@H](Cc1ccccc1)C(=O)CCl)c1ccc2[nH]ccc2c1	–	–	EC50 [7]: 410 nM; IC50 [23]: 0.56 nM
O=C(N[C@@H](Cc1cccc(F)c1)C(=O)N[C@@H](Cc1ccccc1)C(=O)CCl)c1cccc2ccccc12	–	–	IC50 [23]: 1.34 nM
COc1ccc(C[C@@H](C=O)NC(=O)[C@H](CC(C)C)NC(=O)/C=C/c2ccccc2)cc1	> 10 µM	131 nM	–
COC(=O)/C=C/[C@H](Cc1ccccc1)NC(=O)[C@H](CC(C)C)NC(=O)/C=C/c1ccccc1	> 10 µM	> 1000 nM	–
O=C(N[C@@H](Cc1ccccc1)C(=O)N[C@@H](Cc1ccccc1)C(=O)CCl)c1ccc2[nH]ccc2c1	–	–	IC50 [23]: 0.8 nM
CCCC(=O)N[C@@H](CC(C)C)C(=O)N[C@H](C=O)Cc1ccccc1 (Butyryl-Leu-Phe-aldehyde)	> 10 µM	72.7 nM	–
CC(C)C[C@H](NC(=O)OCc1ccccc1)C(=O)N[C@H](C=O)Cc1ccccc1 (Cbz-Leu-Phe-aldehyde)	> 10 µM	9.88 nM	–
CC(C)(C)[C@H](NC(=O)/C=C/c1ccccc1)C(=O)N[C@H](C=O)Cc1ccccc1	> 10 µM	182 nM	–

Structure (SMILES)	IC50 [6]	IC50 [11]	also measured
O=C[C@H](Cc1ccccc1)NC(=O)[C@H](Cc1ccc(F)cc1)NC(=O)/C=C/c1ccccc1	> 10 µM	6.68 nM	–
CC(C)C[C@H](NC(=O)/C=C/c1ccccc1)C(=O)N[C@H](C=O)C(C)C	> 10 µM	23.4 nM	–
O=C[C@H](Cc1ccccc1)NC(=O)[C@H](Cc1ccccc1F)NC(=O)/C=C/c1ccccc1	> 10 µM	6.82 nM	–
C=Cc1ccc(C(=O)N[C@@H](CC(C)C)C(=O)N[C@H](C=O)Cc2ccccc2)cc1	> 10 µM	9.41 nM	–
CC(C)C[C@H](NC(=O)c1cc2ccccc2[nH]1)C(=O)N[C@H](C=O)Cc1ccccc1	> 10 µM	10.1 nM	–
CC(C)C[C@H](NC(=O)c1cccc2ccccc12)C(=O)N[C@H](C=O)Cc1ccccc1	> 10 µM	1.26 nM	–
CC(C)C[C@H](NC(=O)c1ccc2[nH]ccc2c1)C(=O)N[C@H](C=O)Cc1ccccc1	> 10 µM	2.05 nM	–
CC(C)C[C@H](NC(=O)/C=C/c1cccc(F)c1)C(=O)N[C@H](C=O)Cc1ccccc1	> 10 µM	46.2 nM	–
O=C(N[C@@H](Cc1ccc(F)cc1)C(=O)N[C@@H](Cc1ccccc1)C(=O)CCl)c1cccc2ccccc12	–	–	inhibition [3]: inactive; inhibition [5]: inactive; EC50 [7]: 260 nM; Activity [9]: Active; inhibition [10]: inactive; inhibition [12]: inactive; IC50 [23]: 0.27 nM
CC(C)C[C@H](NC(=O)/C=C/c1ccccc1)C(=O)N[C@H](C=O)Cc1ccc(F)cc1	> 10 µM	74.1 nM	–
CCCCCC(=O)N[C@@H](CC(C)C)C(=O)N[C@H](C=O)Cc1ccccc1 (Hexanoyl-Leu-Phe-aldehyde)	> 10 µM	34.6 nM	–
CC(C)C[C@H](NC(=O)/C=C/c1ccccc1)C(=O)N[C@H](C=O)Cc1ccccc1Cl	> 10 µM	58 nM	–
CC(C)C[C@H](NC(=O)Cc1ccccc1)C(=O)N[C@H](C=O)Cc1ccccc1 (PhAc-Leu-Phe-aldehyde)	> 10 µM	7.82 nM	–
CC(C)C[C@H](NC(=O)OC(C)(C)C)C(=O)N[C@H](C=O)Cc1ccccc1 (Boc-Leu-Phe-aldehyde)	> 10 µM	165 nM	–
COc1ccc(C(=O)N[C@@H](CC(C)C)C(=O)N[C@H](C=O)Cc2ccccc2)cc1	> 10 µM	6.06 nM	–
CC(C)C[C@H](NC(=O)c1ccc2ccccc2c1)C(=O)N[C@H](C=O)Cc1ccccc1	> 10 µM	2.83 nM	–
